Measurements reported in US9598447B2, “Phosphorus-substituted quinoxaline-type piperidine compounds and uses thereof” (Purdue Pharma L.P., priority 2010, dated 2017).
Read-outs that look alike come from different tables or passages of the source.

Biological target: delta opioid receptor (Homo sapiens (Human), UniProt P41143)
Assay: In vitro delta-opioid receptor binding assay ([3H]-Naltrindole displacement)
[1] = recombinant receptor expressed in CHO-K1 cells, read-out: Ki [Average ± Std Deviation] Opioid Receptor Delta

Sequence of delta opioid receptor (P41143 whole entry): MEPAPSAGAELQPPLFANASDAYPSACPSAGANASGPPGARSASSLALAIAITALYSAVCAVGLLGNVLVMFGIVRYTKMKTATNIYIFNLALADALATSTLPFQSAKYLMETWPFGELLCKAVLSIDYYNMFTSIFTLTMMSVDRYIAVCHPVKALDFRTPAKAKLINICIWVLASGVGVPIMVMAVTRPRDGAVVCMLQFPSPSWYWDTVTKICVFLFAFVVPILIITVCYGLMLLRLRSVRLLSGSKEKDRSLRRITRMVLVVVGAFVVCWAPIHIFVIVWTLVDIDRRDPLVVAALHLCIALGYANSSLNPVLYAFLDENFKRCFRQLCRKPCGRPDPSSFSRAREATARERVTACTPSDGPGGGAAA

Structure (SMILES) | Ki [1] [µM] | Ki [µM]
O=c1c(P(=O)(O)O)nc2ccccc2n1[C@H]1C[C@H]2CC[C@@H](C1)N2C12CC3CC(CC1C3)C2 [BB, (4-((1R,3R,5S)-8-((2R,3as,5S,6aS)-octahydro-2,5-methanopentalen-3a-yl)-8-azabicyclo[3.2.1]octan-3-yl)-3-oxo-3,4-dihydroquinoxalin-2-yl)phosphonic acid] | > 20 | 
O=c1c(P(=O)(O)O)nc2ccccc2n1[C@H]1C[C@H]2CCC[C@@H](C1)N2C1CCCCCCC1 [DD, (4-((1R,3R,5S)-9-cyclooctyl-9-azabicyclo[3.3.1]nonan-3-yl)-3-oxo-3,4-dihydroquinoxalin-2-yl)phosphonic acid] | > 20 | 
O=C(NP(=O)(O)O)c1nc2ccccc2n([C@H]2C[C@H]3CCC[C@@H](C2)N3C2CCCCCCC2)c1=O [KK, (4-((1R,3R,5S)-9-cyclooctyl-9-azabicyclo[3.3.1]nonan-3-yl)-3-oxo-3,4-dihydroquinoxaline-2-carbonyl)phosphoramidic acid] |  | > 20
